From patent publication US20150158845A1, “5-HALOGEN-SUBSTITUTED OXINDOLE DERIVATIVES AND USE THEREOF FOR TREATING VASOPRESSIN-DEPENDENT DISEASES” (ABBVIE DEUTSCHLAND GMBH & CO. KG, priority 2007, published 2015) come the findings set out here.

Some results are limits rather than exact numbers.

Series [1] deals with T1, human vasopressin V1b receptor (Homo sapiens, UniProt P47901).
T1 construct: expressed in transfected cells; host or cells: CHO-K1 (clone 3H2; cell line hV1b-3H2_CHO), membrane preparation
T1 sequence (P47901 1-424): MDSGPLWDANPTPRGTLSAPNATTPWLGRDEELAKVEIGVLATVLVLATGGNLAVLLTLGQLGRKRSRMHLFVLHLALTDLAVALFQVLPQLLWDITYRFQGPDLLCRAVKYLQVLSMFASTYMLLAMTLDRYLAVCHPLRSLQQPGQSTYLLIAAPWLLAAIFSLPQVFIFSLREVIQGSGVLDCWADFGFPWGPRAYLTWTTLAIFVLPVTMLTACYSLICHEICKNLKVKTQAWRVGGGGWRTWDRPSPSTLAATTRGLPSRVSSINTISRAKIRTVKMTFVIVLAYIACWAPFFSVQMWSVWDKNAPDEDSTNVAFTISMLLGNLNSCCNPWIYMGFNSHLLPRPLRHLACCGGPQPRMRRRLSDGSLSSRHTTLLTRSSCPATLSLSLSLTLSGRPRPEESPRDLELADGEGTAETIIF
Briefly: Vasopressin V1b receptor binding assay. To be noted: membranes from CHO-K1 cells with human V1b receptor, 1.5 nM 3H-AVP. As to the method: 1. Vasopressin V1b Receptor Binding Assay:
The substance concentration was further diluted 1:5 in the assay mixture (2% DMSO in the mixture).
The nonspecific binding was determined with 1 M AVP (Bachem # H1780). All determinations were carried out as triplicate determinations.

A short description of series [2]: Determination of the microsomal half-life / microsomal clearance. The class given is in vitro ADME. To be noted: human liver microsomes, 0.5 μM test substance, 0.25 mg microsomal protein/ml; for microsomal CLint at 0.5 μM: pH 7.4. The method, then: 5. Determination of the Microsomal Half-Life:
The metabolic stability of the compounds of the invention was determined in the following assay.
The test substances were incubated in a concentration of 0.5 μM as follows: 0.5 μM test substance are preincubated together with liver microsomes from different species (from rat, human or other species) (0.25 mg of microsomal protein/ml) in 0.05 M potassium phosphate buffer of pH 7.4 in microtiter plates at 37° C. for 5 min. The reaction is started by adding NADPH (1 mg/mL). After 0, 5, 10, 15, 20 and 30 min, 50 μl aliquots are removed, and the reaction is immediately stopped and cooled with the same volume of acetonitrile. The samples are frozen until analyzed. The remaining concentration of undegraded test substance is determined by MSMS. The half-life (T½) is determined from the gradient of the signal of test substance/unit time plot, it being possible to calculate the half-life of the test substance, assuming first order kinetics, from the decrease in the concentration of the compound with time. The microsomal clearance (mCl) is calculated from mCl=In2/T½/(content of microsomal protein in mg/ml)×1000 […] (modified from references: Di, The Society for Biomoleculur Screening, 2003, 453-462; Obach, DMD, 1999 vol 27. N 11, 1350-1359).
(Liver microsomes are a subcellular fraction often used to study metabolism.)

Series [3] deals with human vasopressin V1a receptor (Homo sapiens, UniProt P37288). Briefly: Vasopressin V1a receptor binding assay. To be noted: selectivity: quotient of Ki at human V1a and Ki at human V1b.
human vasopressin V1a receptor, sequence (P37288 whole entry): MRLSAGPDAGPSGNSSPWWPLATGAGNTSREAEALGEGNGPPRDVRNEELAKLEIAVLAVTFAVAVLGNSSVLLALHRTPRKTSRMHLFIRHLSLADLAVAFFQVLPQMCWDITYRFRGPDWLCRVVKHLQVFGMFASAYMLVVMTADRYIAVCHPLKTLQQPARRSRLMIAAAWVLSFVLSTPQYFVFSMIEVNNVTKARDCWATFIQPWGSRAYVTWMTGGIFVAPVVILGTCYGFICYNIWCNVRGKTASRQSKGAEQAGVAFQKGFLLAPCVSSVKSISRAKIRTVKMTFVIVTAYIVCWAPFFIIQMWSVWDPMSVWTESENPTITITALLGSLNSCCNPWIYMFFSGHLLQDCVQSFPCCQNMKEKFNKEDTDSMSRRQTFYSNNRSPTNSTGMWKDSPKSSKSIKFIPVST

Turning to `CCOc1ncccc1C1(NC(=O)N2CCN(C3CCN(CC)CC3)CC2)C(=O)N(S(=O)(=O)c2ccc(OC)cc2OC)c2ccc(Cl)cc21` (single isomer, unassigned; (+)) [Example 4B, (+)-4-(1-Ethylpiperidin-4-yl)piperazine-1-[5-chloro-1-(2,4-dimethoxyphenylsulfonyl)-3-(2-ethoxypyridin-3-yl)-2-oxo-2,3-dihydro-1H-indol-3-yl]carboxamide], the Ki – broadly, a measure of affinity in units of concentration, obtained from inhibition or displacement – in series [1] was < 1 nM. In series [2], the microsomal CLint – broadly, a measure of how fast metabolising enzymes remove a compound, apart from limits set by blood flow – at 0.5 μM fell in the range of 50 to 75 µL/min/mg. Besides, the “Ki(h-V1a)/Ki(h-V1b)” value in series [3] is given as “+++ (>75)”.
Take `CCOc1ncc(C)cc1C1(NC(=O)N2CCC(N3CCN(C)CC3)CC2)C(=O)N(S(=O)(=O)c2ccc(OC)cc2OC)c2ccc(Cl)cc21.O=C(O)C(F)(F)F` (racemic) [Example 16, (±)-4-(4-Methylpiperazin-1-yl)piperidine-1-[5-chloro-1-(2,4-dimethoxyphenylsulfonyl)-3-(2-ethoxy-5-methylpyridin-3-yl)-2-oxo-2,3-dihydro-1H-indol-3-yl]carboxamide, trifluoroacetic acid salt]: the inhibition constant (Ki) in series [1] was < 1 nM. In addition, the Human microsomal clearance result in series [2] is “+ (>75-100 μl min^−1 mg^−1)”. In series [3], the “Ki(h-V1a)/Ki(h-V1b)” value is “+ (10-<25)”.
For `CCOc1ncccc1C1(CC(=O)N2CCC(N3CCN(CC)CC3)CC2)C(=O)N(S(=O)(=O)c2ccc(OC)cc2OC)c2ccc(Cl)cc21.O=C(O)C(F)(F)F` (racemic) [Example 32, (±)-5-Chloro-1-(2,4-dimethoxyphenylsulfonyl)-3-(2-ethoxypyridin-3-yl)-3-{2-[4-(4-ethylpiperazin-1-yl)piperidin-1-yl]-2-oxoethyl}-1,3-dihydroindol-2-one, trifluoroacetic acid salt], the Ki in series [1] was < 1 nM. Further, in series [2], the microsomal CLint at 0.5 μM fell in the range of 50 to 75 µL/min/mg. Also, the “Ki(h-V1a)/Ki(h-V1b)” value in series [3] was “+ (10-<25)”.
Consider `CCOc1ncc(C)cc1C1(NC(=O)N2CCN(C3CCN(C)CC3)CC2)C(=O)N(S(=O)(=O)c2ccc(OC)cc2OC)c2ccc(Cl)cc21.O=C(O)C(F)(F)F` (racemic) [Example 14, (±)-4-(1-Methylpiperidin-4-yl)piperazine-1-[5-chloro-1-(2,4-dimethoxyphenylsulfonyl)-3-(2-ethoxy-5-methylpyridin-3-yl)-2-oxo-2,3-dihydro-1H-indol-3-yl]carboxamide, trifluoroacetic acid salt], for which the inhibition constant Ki in series [1] was < 1 nM. In series [2], the Human microsomal clearance entry was “++ (50-75 μl min^−1 mg^−1)”. Also, the “Ki(h-V1a)/Ki(h-V1b)” value in series [3] is “+++ (>75)”.
On to `CCOc1ncccc1C1(CC(=O)N2CCN(C3CCN(C)CC3)CC2)C(=O)N(S(=O)(=O)c2ccccc2)c2ccc(Cl)cc21.O=C(O)C(F)(F)F` (racemic) [Example 29, (±)-1-Phenylsulfonyl-5-chloro-3-(2-ethoxypyridin-3-yl)-3-{2-[4-(1-methylpiperidin-4-yl)piperazin-1-yl]-2-oxoethyl}-1,3-dihydroindol-2-one, trifluoroacetic acid salt], for which the Ki in series [1] lay in the range of 1 to 10 nM. Further, the intrinsic clearance (microsomal CLint) at 0.5 μM in series [2] is < 50 µL/min/mg. The “Ki(h-V1a)/Ki(h-V1b)” value in series [3] is “+ (10-<25)”.
For `CCOc1ncccc1C1(NC(=O)N2CCC(C3CCN(C)CC3)CC2)C(=O)N(S(=O)(=O)c2ccc(OC)cc2OC)c2ccc(Cl)cc21` (racemic) [Example 13, (±)-1′-Methyl-[4,4′]bipiperidinyl-1-[5-chloro-1-(2,4-dimethoxyphenylsulfonyl)-3-(2-ethoxypyridin-3-yl)-2-oxo-2,3-dihydro-1H-indol-3-yl]carboxamide], the Ki in series [1] is < 1 nM. In series [2], this molecule displayed a microsomal CLint at 0.5 μM of 75 to 100 µL/min/mg. The “Ki(h-V1a)/Ki(h-V1b)” value in series [3] is “++ (25-75)”.
In turn, `CCOc1ncccc1C1(NC(=O)N2CCN(C3CCN(C)CC3)CC2)C(=O)N(S(=O)(=O)c2ccccc2)c2ccc(Cl)cc21.O=C(O)C(F)(F)F` (racemic) [Example 3, (±)-4-(1-Methylpiperidin-4-yl)piperazine-1-[1-phenylsulfonyl-5-chloro-3-(2-ethoxypyridin-3-yl)-2-oxo-2,3-dihydro-1H-indol-3-yl]carboxamide, trifluoroacetic acid salt] showed a Ki in series [1] of 1 to 10 nM. In addition, in series [2], the Human microsomal clearance result is listed as “+++ (<50 μl min^−1 mg^−1)”. Moreover, in series [3], the “Ki(h-V1a)/Ki(h-V1b)” value is recorded as “++ (25-75)”.
Turning to `CCOc1ncccc1C1(NC(=O)N2CCN(C3CCN(C)CC3)CC2)C(=O)N(S(=O)(=O)c2ccc(OC)cc2OC)c2ccc(Cl)cc21` (single isomer, unassigned; (+)) [Example 1B, (+)-4-(1-Methylpiperidin-4-yl)piperazine-1-[5-chloro-1-(2,4-dimethoxyphenylsulfonyl)-3-(2-ethoxypyridin-3-yl)-2-oxo-2,3-dihydro-1H-indol-3-yl]carboxamide], in series [1], the inhibition constant Ki is < 1 nM. Moreover, the microsomal CLint at 0.5 μM in series [2] was < 50 µL/min/mg. Further, in series [3], the “Ki(h-V1a)/Ki(h-V1b)” value is reported as “+++ (>75)”.
As for `CCOc1ncc(C)cc1C1(NC(=O)N2CCC(N3CCN(CC)CC3)CC2)C(=O)N(S(=O)(=O)c2ccc(OC)cc2OC)c2ccc(Cl)cc21.O=C(O)C(F)(F)F` (racemic) [Example 17, (±)-4-(4-Ethylpiperazin-1-yl)piperidine-1-[5-chloro-1-(2,4-dimethoxyphenylsulfonyl)-3-(2-ethoxy-5-methylpyridin-3-yl)-2-oxo-2,3-dihydro-1H-indol-3-yl]carboxamide, trifluoroacetic acid salt], in series [1], the Ki is < 1 nM. For the same molecule, the Human microsomal clearance result in series [2] was “+ (>75-100 μl min^−1 mg^−1)”. Besides, the “Ki(h-V1a)/Ki(h-V1b)” value in series [3] was “+ (10-<25)”.
Take `CCOc1ncc(C)cc1C1(NC(=O)N2CCN(C3CCN(CC)CC3)CC2)C(=O)N(S(=O)(=O)c2ccc(OC)cc2OC)c2ccc(Cl)cc21.O=C(O)C(F)(F)F` (racemic) [Example 15, (±)-4-(1-Ethylpiperidin-4-yl)piperazine-1-[5-chloro-1-(2,4-dimethoxyphenylsulfonyl)-3-(2-ethoxy-5-methylpyridin-3-yl)-2-oxo-2,3-dihydro-1H-indol-3-yl]carboxamide, trifluoroacetic acid salt]: the Ki in series [1] was < 1 nM. In addition, the Human microsomal clearance result in series [2] is recorded as “+ (>75-100 μl min^−1 mg^−1)”. In addition, the “Ki(h-V1a)/Ki(h-V1b)” value in series [3] is “++ (25-75)”.
For `CCOc1ncccc1C1(NC(=O)N2CCN(C3CCN(C)CC3)CC2)C(=O)N(S(=O)(=O)c2ccc(OC)cc2OC)c2ccc(Cl)cc21` (racemic) [Example 1, (±)-4-(1-Methylpiperidin-4-yl)piperazin-1-[5-chloro-1-(2,4-dimethoxyphenylsulfonyl)-3-(2-ethoxypyridin-3-yl)-2-oxo-2,3-dihydro-1H-indol-3-yl]carboxamide], the inhibition constant (Ki) in series [1] is < 1 nM. The molecule further had an intrinsic metabolic clearance (microsomal CLint) at 0.5 μM in series [2] of 75 to 100 µL/min/mg. Moreover, the “Ki(h-V1a)/Ki(h-V1b)” value in series [3] is given as “+++ (>75)”.
Turning to `CCOc1ncccc1C1(CC(=O)N2CCN(C3CCN(C)CC3)CC2)C(=O)N(S(=O)(=O)c2ccc(OC)cc2OC)c2ccc(Cl)cc21.O=C(O)C(F)(F)F` (racemic) [Example 28, (±)-5-Chloro-1-(2,4-dimethoxyphenylsulfonyl)-3-(2-ethoxypyridin-3-yl)-3-{2-[4-(1-methylpiperidin-4-yl)piperazin-1-yl]-2-oxoethyl}-1,3-dihydroindol-2-one, trifluoroacetic acid salt], the Ki in series [1] was < 1 nM. The same molecule returned a microsomal CLint at 0.5 μM in series [2] of 75 to 100 µL/min/mg. The “Ki(h-V1a)/Ki(h-V1b)” value in series [3] is recorded as “++ (25-75)”.
As for `CCOc1ncccc1C1(NC(=O)N2CCC(N3CCN(CC)CC3)CC2)C(=O)N(S(=O)(=O)c2ccc(OC)cc2OC)c2ccc(Cl)cc21` (single isomer, unassigned; (+)) [Example 8B, (+)-4-(4-Ethylpiperazin-1-yl)piperidine-1-[5-chloro-1-(2,4-dimethoxyphenylsulfonyl)-3-(2-ethoxypyridin-3-yl)-2-oxo-2,3-dihydro-1H-indol-3-yl]carboxamide], the inhibition constant (Ki) in series [1] is < 1 nM. Besides, the microsomal CLint at 0.5 μM in series [2] was in the range of 75 to 100 µL/min/mg. Besides, the “Ki(h-V1a)/Ki(h-V1b)” value in series [3] is on record as “+++ (>75)”.
